Reference: patent US9266904B2, “6-bridged heteroaryldihydropyrimidines for the treatment and prophylaxis of hepatitis B virus infection” (priority 2013, dated 2016)
Values after ≈ are worked out from the molar mass of the structure shown. Where two headings read alike, the source gives them in different places.

What was measured:
[1] = Lyophilisation solubility assay (Lysa); assay type: physicochemical; details: thermodynamic from solid
Procedure: The aqueous solubility is an important physico-chemical property that plays a significant role in various physical and biological processes. It is desirable to have good solubility which enables good permeability and gastric and intestinal absorption, linear dose proportionality, less PK variability, and easy formulation for PD/PK studies. […] Lyophilisation solubility assay (Lysa) is a well adopted high throughput assay to measure compound solubility in industry.
Samples are prepared in duplicate from 10 mM DMSO stock solutions. After evaporation of DMSO with a centrifugal vacuum evaporator, the residue is solved in 0.05 M phosphate buffer (pH 6.5), stirred for one hour and then shook for two hours. After one night, the solution is filtered using a microtiter filter plate and then the filtrate and its 1/10 dilution are then analyzed by direct UV measurement or by HPLC-UV. In addition a four-point calibration curve is prepared from the 10 mM stock solutions and used for the solubility determination of the compounds. The results are in μg/ml. In case the percentage of sample measured in solution after evaporation divided by the calculated maximum of sample amount is bigger than 80% the solubility is reported as bigger than this value.

[2] = system: HBV replication in HepG2.2.15 cells; assay: Anti-HBV activity in vitro in HepG2.2.15 cells (extracellular HBV DNA by qPCR); assay type: cell-based; details: Hepatitis B virus
Excerpt: HepG2.2.15 and HepDE19 are stably-transfected cell lines containing the HBV genome. Both cell lines are derived from the hepatoblastoma cell line Hep G2 (American Type Culture Collection, ATCC® HB-8065™) by the published procedures described in references: M A Selles et al. Proc. Natl. Acad. Sci. USA 1987, 84, 1005-1009 and H Guo et al. Journal of Virology 2007, 81, 12472-12484, respectively. Both cell lines were maintained in Dulbecco's modified Eagle's medium (DMEM)-F12 medium supplemented with 10% fetal bovine serum, 100 U/mL penicillin, 100 μg/mL streptomycin, and 0.5 mg/mL of G418.
While HepG2.2.15 cells constitutively support HBV replication and production of virus particles, HepDE19 cells are inducible by tetracycline. Addition of 1 μg/mL tetracycline in culture medium suppresses HBV replication in HepDE19 cells, whereas switching to tetracycline-free medium resumes this process.
HepG2.2.15 cells were seeded into 96-well plates (3×10^4 cells in 100 μL media per well) and incubated overnight at 37° C. The test compounds were serially half-log diluted in DMSO, then diluted 100 times in culture media. 100 μL diluted compounds were added into the plates to reach 0.5% final concentration of DMSO in every well. Five days after compound treatment, culture supernatant was collected for further analysis.
For quantitative PCR detection of extracellular HBV DNA, 100 μL culture supernatant was collected and processed in MagNA Pure 96 Nucleic Acid Purification System (Roche Applied Science) for viral DNA extraction. The extracted samples were subjected to HBV DNA quantification by qPCR. The effective compound concentration at which HBV replication is inhibited by 50% (EC50) was determined.
The Examples were tested in the above assays as described herein and found to have EC50<1 μM in HepG2.2.15 assay.

[3] = Human microsomal clearance assay; assay type: in vitro ADME; details: human, 1 μM, pH 7.4
Procedure: Microsomes were preincubated with test compound for 10 minutes at 37° C. in 100 mM phosphate buffer with pH 7.4. The reactions were initiated by adding NADPH regenerating system to give a final incubation volume of 400 μL. The incubations finally contained 1 μM test compound, 0.5 mg/mL liver microsomal protein, 3.0 mM glucose 6-phosphate, 1.0 mM NADP, 3.0 mM MgCl2 and 0.05 mg/mL glucose 6-phosphate dehydrogenase in 100 mM phosphate buffer with pH 7.4. After incubation times of 0, 3, 6, 9, 15 and 30 minutes, 50 μL, incubation was transferred to the quench solution containing the internal standard which was 2 μM tolbutamide. After precipitation and centrifugation, test compound concentrations in the samples were determined by LC-MS/MS. Controls of no NADPH regenerating system at zero and 30 minutes were also prepared and analyzed.

[4] = HepG2.2.15, Anti-HBV activity in HepG2.2.15 cells, read-out: EC50

Structure (SMILES)	solubility thermodynamic ([1]; pH 6.5, aqueous buffer) [µg/mL]	EC50 [2, 4] [nM]	CLh [3] [mL/min/kg]	solubility thermodynamic ([1]; aqueous buffer, 0.05 M phosphate buffer (pH 6.5), reported as bigger than the value if more than 80% of the sample is in solution, read-out: Lysa) [µg/mL]	EC50 ([2]; HepG2.2.15) [nM]
CCOC(=O)C1=C(CN2C3COCC2C(OCC(=O)O)C3)NC(c2nccs2)=N[C@H]1c1ccc(F)cc1Br (mixture of isomers) [Example 50, 2-[[8-[[(4R)-4-(2-bromo-4-fluoro-phenyl)-5-ethoxycarbonyl-2-thiazol-2-yl-1,4-dihydropyrimidin-6-yl]methyl]-3-oxa-8-azabicyclo[3.2.1]octan-6-yl]oxy]acetic acid]	> 724	24.1	1.4		
COC(=O)C1=C(CN2C3COCC2CC(C(=O)O)C3)NC(c2nccs2)=N[C@H]1c1ccc(F)cc1Cl (stereo partly drawn) [Example 1, 9-[[(4R)-4-(2-chloro-4-fluoro-phenyl)-5-methoxycarbonyl-2-thiazol-2-yl-1,4-dihydropyrimidin-6-yl]methyl]-3-oxa-9-azabicyclo[3.3.1]nonane-7-carboxylic acid]	540 (≈ 1010 µM)	59	3.0		
COC(=O)C1=C(CN2C3COCC2CC(C(=O)O)C3)NC(c2nc(C)cs2)=N[C@H]1c1ccc(F)cc1Cl (stereo partly drawn) [Example 2, 9-[(R)-6-(2-Chloro-4-fluoro-phenyl)-5-methoxycarbonyl-2-(4-methyl-thiazol-2-yl)-3,6-dihydro-pyrimidin-4-ylmethyl]-3-oxa-9-aza-bicyclo[3.3.1]nonane-7-carboxylic acid]	450 (≈ 820 µM)	114	3.2		
COC(=O)C1=C(CN2C3COCC2CC(C(=O)O)C3)NC(c2nccs2)=NC1c1ccc(F)c(F)c1 (stereo not shown) [Example 3, 9-[6-(3,4-Difluoro-phenyl)-5-methoxycarbonyl-2-thiazol-2-yl-3,6-dihydro-pyrimidin-4-ylmethyl]-3-oxa-9-aza-bicyclo[3.3.1]nonane-7-carboxylic acid]	> 678	400	0		
COC(=O)C1=C(CN2C3COCC2CC(C(=O)O)C3)NC(c2nccs2)=N[C@H]1c1ccc(F)cc1Br (stereo partly drawn) [Example 5, 9-[(R)-6-(2-Bromo-4-fluoro-phenyl)-5-methoxycarbonyl-2-thiazol-2-yl-3,6-dihydro-pyrimidin-4-ylmethyl]-3-oxa-9-aza-bicyclo[3.3.1]nonane-7-carboxylic acid]	> 660	21	0		
COC(=O)C1=C(CN2C3COCC2CN(C(C)C)C3)NC(c2nccs2)=N[C@H]1c1ccc(F)cc1Cl [Example 13, (R)-4-(2-Chloro-4-fluoro-phenyl)-6-(7-isopropyl-3-oxa-7,9-diaza-bicyclo[3.3.1]non-9-ylmethyl)-2-thiazol-2-yl-1,4-dihydro-pyrimidine-5-carboxylic acid methyl ester]	313 (≈ 586 µM)	270			
COC(=O)C1=C(CN2C3COCC2CN(C(C)=O)C3)NC(c2nccs2)=N[C@H]1c1ccc(F)cc1Cl [Example 15, (R)-6-(7-Acetyl-3-oxa-7,9-diaza-bicyclo[3.3.1]non-9-ylmethyl)-4-(2-chloro-4-fluoro-phenyl)-2-thiazol-2-yl-1,4-dihydro-pyrimidine-5-carboxylic acid methyl ester]	233 (≈ 436 µM)	43			
COC(=O)C1=C(CN2C3CNC(=O)CC2COC3)NC(c2nccs2)=N[C@H]1c1ccc(F)cc1Cl (stereo partly drawn) [Example 34, (R)-4-(2-Chloro-4-fluoro-phenyl)-6-(4-oxo-8-oxa-3,10-diaza-bicyclo[4.3.1]dec-10-ylmethyl)-2-thiazol-2-yl-1,4-dihydro-pyrimidine-5-carboxylic acid methyl ester]	263 (≈ 506 µM)	42			
COC(=O)C1=C(CN2CC3CC2CN3C(C)=O)NC(c2nccs2)=N[C@H]1c1ccc(F)cc1Cl (stereo partly drawn) [Example 41, (R)-6-(5-Acetyl-2,5-diaza-bicyclo[2.2.1]hept-2-ylmethyl)-4-(2-chloro-4-fluoro-phenyl)-2-thiazol-2-yl-1,4-dihydro-pyrimidine-5-carboxylic acid methyl ester]				> 552	133
COC(=O)C1=C(CN2C3CSCC2CC(CC(=O)O)C3)NC(c2nccs2)=N[C@H]1c1ccc(F)cc1Cl (stereo partly shown) [Example 42, 6-(7-Carboxymethyl-3-thia-9-aza-bicyclo[3.3.1]non-9-ylmethyl)-4-(2-chloro-4-fluoro-phenyl)-2-thiazol-2-yl-1,4-dihydro-pyrimidine-5-carboxylic acid methyl ester]	188 (≈ 333 µM)	54.5			
COC(=O)C1=C(CN2[C@@H]3CC[C@H]2C[C@@H](O)C3)NC(c2nccs2)=N[C@H]1c1ccc(F)cc1Cl [Example 44, (R)-4-(2-Chloro-4-fluoro-phenyl)-6-((1R,3R,5S)-3-hydroxy-8-aza-bicyclo[3.2.1]oct-8-ylmethyl)-2-thiazol-2-yl-1,4-dihydro-pyrimidine-5-carboxylic acid methyl ester]	> 623		7.1		
COC(=O)C1=C(CN2[C@H]3C[C@H](CC(=O)O)C[C@@H]2C(F)(F)C3)NC(c2nccs2)=N[C@H]1c1ccc(F)cc1Cl [Example 110, 2-[(1S,3S,5R)-8-[[(4R)-4-(2-chloro-4-fluoro-phenyl)-5-methoxycarbonyl-2-thiazol-2-yl-1,4-dihydropyrimidin-6-yl]methyl]-6,6-difluoro-8-azabicyclo[3.2.1]octan-3-yl]acetic acid]		44.3	4.1		
COC(=O)C1=C(CN2C3CCC2CN(C(C)=O)C3)NC(c2nccs2)=N[C@H]1c1ccc(F)cc1Cl [Example 122, Methyl (4R)-6-[(3-acetyl-3,8-diazabicyclo[3.2.1]octan-8-yl)methyl]-4-(2-chloro-4-fluoro-phenyl)-2-thiazol-2-yl-1,4-dihydropyrimidine-5-carboxylate]		77.4	7.0		
CCOC(=O)C1=C(CN2C3COCC2C(F)(F)[C@@H](CC(=O)O)C3)NC(c2nccs2)=N[C@H]1c1ccc(F)c(F)c1C (stereo partly drawn) [Example 127, 2-[(7R)-9-[[(4S)-4-(3,4-difluoro-2-methyl-phenyl)-5-ethoxycarbonyl-2-thiazol-2-yl-1,4-dihydropyrimidin-6-yl]methyl]-6,6-difluoro-3-oxa-9-azabicyclo[3.3.1]nonan-7-yl]acetic acid]		16.1	2.9		
CCOC(=O)C1=C(CN2C3COCC2C(F)(F)[C@@H](CC(=O)O)C3)NC(c2nccs2)=N[C@H]1c1cccc(F)c1Cl (stereo partly drawn) [Example 129, 2-[(7R)-9-[[(4R)-4-(2-chloro-3-fluoro-phenyl)-5-ethoxycarbonyl-2-thiazol-2-yl-1,4-dihydropyrimidin-6-yl]methyl]-6,6-difluoro-3-oxa-9-azabicyclo[3.3.1]nonan-7-yl]acetic acid]		21	2.0		
CCOC(=O)C1=C(CN2C3CC(C(=O)O)CC2C(F)(F)C3)NC(c2nccs2)=N[C@H]1c1cccc(F)c1Cl (stereo partly drawn) [Example 150, 8-[[(4R)-4-(2-chloro-3-fluoro-phenyl)-5-ethoxycarbonyl-2-thiazol-2-yl-1,4-dihydropyrimidin-6-yl]methyl]-6,6-difluoro-8-azabicyclo[3.2.1]octane-3-carboxylic acid]		7.7	3.1		
